Measurements published in US10239843B2 (CANCER RESEARCH TECHNOLOGY LIMITED, priority 2014, dated 2019).
Like-named read-outs stand apart in the source and are kept apart here.

Molecular target: Human Full Length PARG (Homo sapiens (Human), UniProt Q86W56)
Experiment: PARG enzyme assay (TR-FRET)
Assay type: biochemical
[1] = read-out: PARG Biochem IC50 Geomean

Human Full Length PARG, sequence (Q86W56 whole entry): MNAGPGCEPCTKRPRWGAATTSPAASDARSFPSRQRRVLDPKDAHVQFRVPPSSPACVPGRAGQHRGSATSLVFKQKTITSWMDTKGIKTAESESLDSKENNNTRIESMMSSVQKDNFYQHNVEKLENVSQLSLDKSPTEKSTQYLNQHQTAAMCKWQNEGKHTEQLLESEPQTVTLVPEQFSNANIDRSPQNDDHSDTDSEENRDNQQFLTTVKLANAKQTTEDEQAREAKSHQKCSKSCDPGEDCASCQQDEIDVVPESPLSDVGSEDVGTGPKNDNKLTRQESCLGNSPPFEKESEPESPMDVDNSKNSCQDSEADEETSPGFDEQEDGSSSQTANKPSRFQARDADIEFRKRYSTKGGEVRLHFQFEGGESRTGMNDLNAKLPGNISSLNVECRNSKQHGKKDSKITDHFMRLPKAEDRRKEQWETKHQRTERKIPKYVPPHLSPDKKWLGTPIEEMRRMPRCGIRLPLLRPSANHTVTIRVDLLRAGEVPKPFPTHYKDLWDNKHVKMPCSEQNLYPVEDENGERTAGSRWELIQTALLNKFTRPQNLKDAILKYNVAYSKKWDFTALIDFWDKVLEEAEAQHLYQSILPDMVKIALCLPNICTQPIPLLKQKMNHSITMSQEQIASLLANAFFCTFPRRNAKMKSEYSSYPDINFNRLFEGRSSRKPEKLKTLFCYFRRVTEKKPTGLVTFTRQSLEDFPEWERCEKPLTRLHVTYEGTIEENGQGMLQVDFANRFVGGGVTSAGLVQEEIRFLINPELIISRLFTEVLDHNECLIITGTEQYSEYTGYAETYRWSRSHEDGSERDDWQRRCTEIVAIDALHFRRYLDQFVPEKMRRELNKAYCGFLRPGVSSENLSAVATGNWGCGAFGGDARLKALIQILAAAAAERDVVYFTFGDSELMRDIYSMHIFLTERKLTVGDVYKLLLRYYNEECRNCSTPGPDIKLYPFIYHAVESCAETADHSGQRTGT

IC50 [1]	IC50 (read-out: PARG Biochem IC50)	Structure (SMILES)
	2.06 µM	Cc1nonc1Cn1c(=O)c2cc(S(=O)(=O)NC3(C)CC3)ccc2n(C)c1=O [Example 511, 1-Methyl-N-(1-methylcyclopropyl)-3-[(4-methyl-1,2,5-oxadiazol-3-yl)methyl]-2,4-dioxo-quinazoline-6-sulfonamide]
	3.79 µM	Cn1c(=O)n(Cc2cnc[nH]2)c(=O)c2cc(S(=O)(=O)NC3(C)CC3)ccc21 [Example 505, 3-(1H-Imidazol-4-ylmethyl)-1-methyl-N-(1-methylcyclopropyl)-2,4-dioxo-quinazoline-6-sulfonamide]
0.592 µM		Cn1c(=O)n(Cc2cnn(Cc3ccccc3)c2)c(=O)c2cc(S(=O)(=O)NC3(C)CC3)ccc21 [Example 215]
1.39 µM		Cc1nc(C)c(Cn2c(=O)n(C)c(=O)c3cc(S(=O)(=O)NC(C)(C)C)ccc32)s1 [Example 202]
0.511 µM		Cc1cc(Cn2c(=O)c3cc(S(=O)(=O)NC4(C)CC4)ccc3n(CCN3CCN(C)CC3)c2=O)on1 [Example 341]
1.18 µM		Cn1c(=O)n(Cc2ccno2)c(=O)c2cc(S(=O)(=O)NC3(C)CC3)ccc21 [Example 226]
1.44 µM		Cn1c(=O)c2cc(S(=O)(=O)NC3(C)CC3)c(F)cc2n(C)c1=O [Example 224]
1.64 µM		Cc1cc(Cn2cc(Cl)c3ccc(S(=O)(=O)NC4(C)CC4)cc3c2=O)on1 [Example 209, 4-Chloro-N-(1-methylcyclopropyl)-2-[(3-methylisoxazol-5-yl)methyl]-1-oxo-isoquinoline-7-sulfonamide]
0.526 µM		Cc1cc(Cn2c(=O)c3cc(S(=O)(=O)NC4(C)CC4)ccc3n(CCN3CCCCC3)c2=O)on1 [Example 278]
8.53 µM		Cn1cc(-c2ccc(F)cc2)c2ccc(S(=O)(=O)NC3(C)CC3)cc2c1=O [Example 255, 4-(4-Fluorophenyl)-2-methyl-N-(1-methylcyclopropyl)-1-oxo-isoquinoline-7-sulfonamide]
6.72 µM		Cc1cc(Cn2nc(C(=O)O)c3ccc(S(=O)(=O)NC4(C)CC4)cc3c2=O)on1 [Example 302, 6-(N-(1-Methylcyclopropyl)sulfamoyl)-3-((3-methylisoxazol-5-yl)methyl)-4-oxo-3,4-dihydrophthalazine-1-carboxylic acid]
4.12 µM		CC1(NS(=O)(=O)c2ccc3[nH]c(=O)n(C4CC4)c(=O)c3c2)CC1 [Example 240, 3-Cyclopropyl-N-(1-methylcyclopropyl)-2,4-dioxo-1H-quinazoline-6-sulfonamide]
7.49 µM		Cn1c(=O)c2cc(S(=O)(=O)NC3(C)CC3)cc(F)c2n(C)c1=O [Example 225]

Further lines, the molecule ahead of its results:

Structure (SMILES)	IC50 [1]	IC50 (read-out: PARG Biochem IC50)
Cn1c(=O)n(CC(=O)Nc2ccccc2)c(=O)c2cc(S(=O)(=O)NC3(C)CC3)ccc21 [Example 85]	2.25 µM	
Cn1c(=O)c(=O)n(Cc2ccc(F)cc2)c2ccc(S(=O)(=O)NC3(C)CC3)cc21 [Example 130, 1-[(4-Fluorophenyl)methyl]-4-methyl-N-(1-methylcyclopropyl)-2,3-dioxo-quinoxaline-6-sulfonamide]	3.36 µM	
Cn1c(=O)n(Cc2cnccn2)c(=O)c2cc(S(=O)(=O)NC3(C)CC3)ccc21 [Example 108]	7.8 µM	
Cn1c(=O)n(Cc2nc3ccccc3[nH]2)c(=O)c2cc(S(=O)(=O)NC3(C)CC3)ccc21 [Example 112]	5.71 µM	
Cc1csc(Cn2c(=O)c3cc(S(=O)(=O)NC4(C)CC4)ccc3n(C)c2=O)n1 [Example 150]	4.78 µM	
Cc1noc(Cn2c(=O)c3cc(S(=O)(=O)NC4(C)CC4)ccc3n(C)c2=O)n1 [Example 190]	3.18 µM	
COc1ccccc1Cn1c(=O)n(C)c(=O)c2cc(S(=O)(=O)NC3(C)CC3)ccc21 [Example 59]	3.24 µM	
Cn1c(=O)n(CC2CC2)c(=O)c2cc(S(=O)(=O)NC3(C)CC3)ccc21 [Example 20]	4.65 µM	
Cc1ccccc1Cn1c(=O)n(C)c(=O)c2cc(S(=O)(=O)NC3(C)CC3)ccc21 [Example 56]	3.34 µM	
